84 molecules from PubChem BioAssay AID1645868 (Buhrlage Lab, Dana-Farber Cancer Institute and Novartis …, 2021) can be followed below.

Activity calls are given as the source filed them.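 How the source made its calls: active means maximal percent inhibition of the deubiquitinase OTUD3 of at least 30% across the tested doses; inactive means the rest.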

This assay addresses OTU domain-containing protein 3 (Homo sapiens) (UniProt Q5T2D3). Briefly: Validation of screening hits, potency titration, in vitro enzymatic, OTU domain-containing protein 3 DUB inhibitors (AID 1645868). The note with it: purified OTUD3, ubiquitin-rhodamine cleavage fluorescence, 2 h.

OTU domain-containing protein 3 (Homo sapiens), sequence (Q5T2D3 whole entry, looked up, the tested form may be a part): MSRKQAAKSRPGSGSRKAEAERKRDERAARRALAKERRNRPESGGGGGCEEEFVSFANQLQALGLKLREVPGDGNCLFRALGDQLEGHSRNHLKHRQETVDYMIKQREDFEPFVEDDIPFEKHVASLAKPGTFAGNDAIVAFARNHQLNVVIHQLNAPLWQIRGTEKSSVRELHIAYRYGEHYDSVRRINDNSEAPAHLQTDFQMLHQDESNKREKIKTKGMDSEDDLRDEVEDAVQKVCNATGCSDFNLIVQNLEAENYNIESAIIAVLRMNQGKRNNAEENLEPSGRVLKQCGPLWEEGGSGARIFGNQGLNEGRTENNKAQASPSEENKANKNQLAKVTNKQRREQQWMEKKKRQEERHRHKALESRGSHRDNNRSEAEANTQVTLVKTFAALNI

`O=C(Nc1ccc(F)cc1F)NC1CCN(c2ccccc2)C1=O` (centres undefined): the IC50 is 32.9 µM.

As for `COc1ccc(-c2cc3nc(C)cc(Nc4ccc(F)cc4)n3n2)cc1OC`, the IC50 is > 50 µM (inactive).

For the molecule `CC1=C[C@H]2N(c3ccc(C)cc31)[C@H](C(=O)c1cccs1)[C@@H](C(=O)c1ccc(F)cc1)[C@]21C(=O)Nc2ccccc21`, the IC50 was > 50 µM (inactive).

Take `N#Cc1cccnc1N1CCN(C(=O)Nc2cccc3ccccc23)CC1`: the IC50 was > 50 µM (inactive).

In the case of `CC(=O)Nc1ccc(S(=O)(=O)NCc2ccc(C(=O)NCCc3ccc(Cl)cc3)cc2)cc1`, the IC50 is 11.8 µM.

Consider `O=C1N(Cc2cccc(Cl)c2)CCN1c1ccc2c(c1)CCC2`, for which the IC50 is > 50 µM (inactive).

Consider `Fc1cccc(Cn2cc(-c3noc(-c4cccnc4)n3)nn2)c1`, for which the IC50 is > 50 µM (inactive).

Turning to `CCCCc1ccc(-c2cc(C(=O)NCCN3CCOCC3)c3cc(Br)ccc3n2)cc1`, the IC50 was 23.4 µM.

Turning to `CCOc1ccc(-c2nc(C#N)c(N3CCN(C(=O)c4ccccc4C)CC3)o2)cc1`, the IC50 is 43.4 µM.

For `Cc1ccccc1Cn1ccc(NC(=O)c2noc(C)c2[N+](=O)[O-])n1`, the IC50 is > 50 µM (inactive).

For the molecule `Cc1ccc(NC(=O)Cc2nnc3c(-c4nc(C5CC5)no4)cccn23)cc1`, the 50% inhibitory concentration (IC50) was 31.3 µM.

Turning to `COc1cc2c(cc1NC(=O)c1ccc(-n3cnnn3)cc1)oc1ccccc12`, the IC50 is > 50 µM (inactive).

As for `COc1cccc(NC(=O)c2cnc3c(c2)c(=O)n(C)c(=O)n3C)c1`, the IC50 was 19.9 µM.

For the molecule `COc1ccccc1Nc1ncc(C(=O)NCCc2ccc(Cl)cc2)c2ccccc12`, the concentration for half-maximal inhibition (IC50) was 21.2 µM.

`O=C(COC(=O)Cn1cnc2ccccc21)Nc1ccc2c(c1)OCCO2`: the IC50 is > 50 µM (inactive).

`COc1ccc(COC(=O)C2=C(C)NC(=O)CC2c2cccc([N+](=O)[O-])c2)cc1` (centres undefined): the IC50 was > 50 µM (inactive).

Regarding `O=C(C(c1ccccc1)c1ccccc1)N1CCC(c2nc3c(nnn3Cc3c(F)cccc3Cl)c(=O)[nH]2)CC1`, the half-maximal inhibitory concentration (IC50) was 27.3 µM.

As to `N#Cc1ccc(-c2ccc(OCC(=O)Nc3ccc4c(c3)OCO4)cc2)cc1`, the IC50 was > 50 µM (inactive).

As to `CC1CCN(S(=O)(=O)c2ccc(C(=O)Nc3ccc(S(N)(=O)=O)cc3)cc2)CC1`, the IC50 was > 50 µM (inactive).

On to `Cc1c2c(nc3ccccc13)-c1ccccc1CC2`, for which the IC50 is > 50 µM (inactive).

As to `O=C(c1cnccn1)N1CCc2[nH]c3ccc(F)cc3c2C1`, the IC50 is > 50 µM (inactive).

In the case of `CC(C)(C)C(=O)NC(c1ccccc1)c1nnc(N2CCOCC2)o1` (centres undefined), the IC50 was > 50 µM (inactive).

For `CCc1ccc(NC(=O)Cc2nnc3cc(-c4nc(C)no4)ccn23)cc1`, the half-maximal inhibitory concentration (IC50) is 29.2 µM.

Take `Cn1c(=O)sc2cc(NC(=O)c3ccc(Br)cc3)ccc21`: the concentration for half-maximal inhibition (IC50) was 15.2 µM.

Consider `CCOc1ccc(NC(=O)c2cc(-c3ccccc3)c(N3CCOCC3)s2)cc1`, for which the IC50 was 27.2 µM.

For `COc1cccc(NC(=O)CCc2c(C)nn(-c3cc(N4CCCCC4)ncn3)c2C)c1`, the IC50 was > 50 µM (inactive).

Consider `O=C(Nc1nc2c(ccc3ccccc32)s1)c1cccc(Br)c1`, for which the half-inhibitory concentration (IC50) was 24.6 µM.

As for `O=S(=O)(Nc1ccc(O)cc1)c1ccc2oc3ccc(S(=O)(=O)Nc4ccc(O)cc4)cc3c2c1`, the concentration for half-maximal inhibition (IC50) is 46.1 µM.

Take `CNC(=O)c1cc2nc(N(C)C)n(-c3ccc(F)cc3)c2s1`: the IC50 is > 50 µM (inactive).

As for `COc1ccc(OC)c2c(C)cc(N3CCN(S(=O)(=O)c4ccc5c(c4)CCCN5S(C)(=O)=O)CC3)nc12`, the concentration for half-maximal inhibition (IC50) is 21.1 µM.

In the case of `CCOC(=O)c1cn(C2CC2)c2cc(N3CCNCC3)c([N+](=O)[O-])cc2c1=O`, the IC50 was > 50 µM (inactive).

Consider `O=S1(=O)CCN(Cc2c(F)cccc2F)c2c(F)nc(N3CCOCC3)c(F)c21`, for which the IC50 was > 50 µM (inactive).

Consider `COc1ccc(NC(=O)CC(=O)c2ccc([N+](=O)[O-])cc2)cc1S(=O)(=O)Nc1ccc(Br)cc1`, for which the IC50 is 28.7 µM.

In the case of `COc1ccc(S(=O)(=O)N2CCc3ccccc32)cc1C(=O)Nc1ccc2[nH]c(=O)[nH]c2c1`, the IC50 was 19.5 µM.

Turning to `Cc1cc(C)c2cc(C(=O)NC3CCN(Cc4ccccc4)CC3)[nH]c2c1`, the IC50 was 32.1 µM.

Turning to `COc1ccc(NC(=O)c2sc(N3CCOCC3)nc2-c2ccccc2)c(OC)c1`, the 50% inhibitory concentration (IC50) was 43.5 µM.

In the case of `CS(=O)(=O)N1CCCc2cc(C(=O)Nc3ccc4c(c3)OCO4)ccc21`, the IC50 is > 50 µM (inactive).

`CCOc1ccc2c(c1)c(=O)c(C(=O)c1ccccc1)cn2CC(=O)Nc1ccc2c(c1)OCCO2`: the 50% inhibitory concentration (IC50) was 43 µM.

As to `CCn1c(COc2cccc(C(F)(F)F)c2)nnc1SCc1ccc(Cl)cc1`, the IC50 is 28.8 µM.

As to `CN1CC2CN(C(=O)c3ccc(F)cc3)CCN2Cc2ccccc21` (centres undefined), the IC50 is > 50 µM (inactive).

With `COc1ccc(-n2c(SCC(=O)c3ccc(F)cc3)nnc2-c2cccnc2)cc1`, the concentration for half-maximal inhibition (IC50) is 26.8 µM.

For `CC(=O)Nc1ccc(NC(=O)c2cc(-c3cc(C)cc(C)c3O)n[nH]2)cc1`, the IC50 is 21.8 µM.

`CCOC(=O)c1cccc(NC(=O)Nc2cccn3nc(C)nc23)c1`: the IC50 was > 50 µM (inactive).

`COc1ccc(CCNC(=O)c2cc(C3CC3)nc3c2cnn3C(C)C)cc1`: the IC50 was > 50 µM (inactive).

Regarding `COc1ccc(-c2cc(-c3nnc(CSc4nc5ccccc5n4C)o3)c3ccccc3n2)cc1OC`, the IC50 is > 50 µM (inactive).

With `Cc1ccc(C)c(S(=O)(=O)N2CCC3(CC2)NC(=O)c2ccccc2N3)c1`, the IC50 was > 50 µM (inactive).

Take `COc1ccc(OC)c(-c2cn3ccn(-c4ccc5c(c4)CCC5)c(=O)c3n2)c1`: the IC50 was > 50 µM (inactive).

Consider `CC1CCN(c2nc(F)c3c(c2F)S(=O)(=O)CCN3Cc2cccnc2)CC1`, for which the IC50 was > 50 µM (inactive).

As to `Cc1cc(=O)n(C)c2c(O)c3c(cc12)c(C)cc(=O)n3C`, the IC50 was > 50 µM (inactive).

As for `CSc1nc(Cc2ccc(Cl)cc2)nc2ccccc12`, the IC50 is > 50 µM (inactive).

In the case of `Cc1nc(-c2ccc3c(c2)nnn3CCN2CCOCC2)no1`, the IC50 is > 50 µM (inactive).

Consider `Cc1ccc(Nc2nc(Nc3cccc(F)c3)nc3nccnc23)c(C)c1`, for which the IC50 is > 50 µM (inactive).

`COc1ccc(/C=C/C(=O)Nc2ccc3c(c2)OCCO3)cc1Br`: the IC50 was > 50 µM (inactive).

Turning to `O=c1[nH]cccc1NS(=O)(=O)c1ccc(F)cc1`, the IC50 was > 50 µM (inactive).

Take `CCS(=O)(=O)N1CCc2cc(C(=O)Nc3ccc4c(c3)OCCO4)ccc21`: the IC50 was > 50 µM (inactive).

As to `O=C(Nc1ccc2c(c1)OCCO2)C1CCN(C(=O)c2ccccc2)CC1`, the IC50 was > 50 µM (inactive).

For `Cc1sc2ccn(C)c(=O)c2c1C(=O)NC1CCCC1`, the IC50 was 30.8 µM.

As for `COc1ccc(C(=O)CSc2nnc(-c3cccnc3)n2-c2ccccc2)cc1`, the IC50 is > 50 µM (inactive).

Take `O=C(CCn1c(=O)c2sccc2n(CC(=O)OCc2ccccc2)c1=O)NCc1ccc2c(c1)OCO2`: the concentration for half-maximal inhibition (IC50) was 20.7 µM.

For the molecule `CC[C@@]1(O)C[C@H](OC2CC(N(C)C)C(OC3CC(O)C(OC4CCC(=O)C(C)O4)C(C)O3)C(C)O2)c2c(cc3c(c2O)C(=O)c2c(O)ccc(O)c2C3=O)[C@H]1C(=O)OC` (some centres undefined), the IC50 is > 5 µM (inactive).

`Cc1ccc2nc(NC(=O)CSc3nnc(-c4ccncc4)n3C3CC3)sc2c1`: the IC50 is > 50 µM (inactive).

As to `CC(=O)[C@H]1c2c(c(O)c3c(O)cccc3c2-c2c3c(c(O)c4c(O)cccc24)C(=O)C[C@](C)(O)[C@H]3C(C)=O)C(=O)C[C@]1(C)O`, the IC50 was > 50 µM (inactive).

In the case of `O=C(COC(=O)c1ccc(Cl)cc1)Nc1ccc2[nH]c(=O)[nH]c2c1`, the IC50 was 12.7 µM.

As for `COc1ccc(NC(=O)CS(=O)(=O)c2[nH]c(-c3ccc(C)cc3)nc2-c2ccccc2)cc1Cl`, the IC50 was > 50 µM (inactive).

For `O=c1ccc(-c2noc(-c3ccc4cc[nH]c4c3)n2)c[nH]1`, the IC50 is > 50 µM (inactive).

In the case of `CCn1ccc2c(cc(C(=O)Nc3cccc(OC)c3)n2C)c1=O`, the IC50 was > 50 µM (inactive).

In the case of `O=C(CSc1nc2ccncc2[nH]1)Nc1ccc(Br)cc1F`, the concentration for half-maximal inhibition (IC50) is 49.8 µM.

`O=C(Cn1cc(C(=O)C2CC2)c2ccccc21)NCc1ccc2c(c1)OCO2`: the IC50 was 31.2 µM.

Turning to `CCOc1ccc2c(c1)c(=O)c(C(=O)c1ccccc1)cn2CC(=O)Nc1ccccc1`, the half-inhibitory concentration (IC50) is 19.4 µM.

`Fc1cc(F)c2[nH]cc(-c3nnnn3-c3ccc4ccccc4c3)c2c1`: the IC50 was 32.6 µM.

Turning to `Cc1cccc(S(=O)(=O)N2CCc3nc4ccccc4n3CC2)c1`, the IC50 is 36.5 µM.

Consider `Cc1ccc([N+](=O)[O-])cc1S(=O)(=O)Nc1cc2sc(=O)oc2c2ccccc12`, for which the IC50 was 35.9 µM.

For `Cc1ccccc1OCCC(=O)Nc1cccc(S(=O)(=O)Nc2ccccc2Cl)c1`, the IC50 was > 50 µM (inactive).

As to `COc1cccc2c1NC(=O)C21CCN(C(=O)Nc2cccc3ccccc23)CC1`, the IC50 was > 50 µM (inactive).

Consider `CC(=O)c1ccc(NC(=O)/C(=C/c2ccco2)n2nnnc2-c2ccccc2)cc1`, for which the IC50 is > 50 µM (inactive).

For the molecule `O=C(NC1CCN(c2nc(-c3cccnc3)nc3ccccc23)CC1)c1cccnc1`, the IC50 is > 50 µM (inactive).

In the case of `COc1cc(COc2ccc3c(C)c(CC(=O)N4CC[C@@]5(O)CCCC[C@H]5C4)c(=O)oc3c2C)cc(OC)c1OC`, the IC50 was > 50 µM (inactive).

Regarding `N#Cc1ccc(Cl)cc1NC(=O)COc1cccnc1[N+](=O)[O-]`, the IC50 was > 50 µM (inactive).

Consider `C/C=C(\Cl)C1=CC(=O)[C@]23C[C@H]2[C@@]2(C)CO[C@@]1(O)[C@@]3(O)O2`, for which the IC50 was > 50 µM (inactive).

Regarding `CC(=O)c1cccc(NC(=O)c2ccc(N3CCCCC3)nn2)c1`, the IC50 was > 50 µM (inactive).

Take `COc1ccc2nc(SCC(=O)Nc3ccc(NC(C)=O)cc3)c(C)cc2c1`: the IC50 was 31.9 µM.

`COc1ccc(C)cc1NC(=O)C(NS(=O)(=O)c1ccc2c(c1)CCN2C(C)=O)C(C)C` (centres undefined): the IC50 was > 50 µM (inactive).

With `COc1cccc(NC(=O)c2ccc(-c3csc(C)n3)cc2)c1`, the IC50 is > 50 µM (inactive).

For `O=C(Nc1ccccc1)c1nc2c(s1)CCN(C(=O)c1ccccc1)CC2`, the IC50 is > 50 µM (inactive).
